Test results reported in ChEMBL document CHEMBL1154476 (Eur J Med Chem, 2008).

biological target: T1, Ribosyldihydronicotinamide dehydrogenase [quinone] (Homo sapiens, UniProt P16083); test: Displacement of [125I]iodomelatonin from MT3/QR2 melatonin binding site expressed in CHO cells; type: cell-based
T1 sequence (P16083 whole entry): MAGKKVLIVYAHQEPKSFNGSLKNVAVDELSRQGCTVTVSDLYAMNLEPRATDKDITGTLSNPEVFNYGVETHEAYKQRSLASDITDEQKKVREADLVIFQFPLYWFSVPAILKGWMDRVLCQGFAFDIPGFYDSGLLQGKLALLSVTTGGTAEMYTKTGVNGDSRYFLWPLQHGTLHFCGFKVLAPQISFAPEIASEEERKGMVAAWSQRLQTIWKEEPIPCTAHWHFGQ

SMILES	IC50
COc1ccc2[nH]cc(CCNC(C)=O)c2c1[N+](=O)[O-]	1.2 nM
COc1ccc2c(c1)c(CCNC(C)=O)cn2C	2.82 nM
CC(=O)NCCc1c[nH]c2ccc([N+](=O)[O-])cc12	41.7 nM
COC(=O)Nc1ccc2occ(CCNC(C)=O)c2c1	15.8 nM
COC(=O)Nc1ccc2occ(CCNC(=O)c3ccccc3)c2c1	67.6 nM
CCOC(=O)c1[nH]c2ccc(OC)cc2c1CCNC(C)=O	3.02 nM
C=CCC(=O)NCCc1coc2ccc(NC(=O)OC)cc12	11 nM
COC(=O)c1ccc2occ(CCNC(=O)C3CCCC3)c2c1	18.2 nM
COC(=O)c1ccc2occ(CCNC(C)=O)c2c1	14.1 nM
NC(=O)c1ccc2occ(CCNC(=O)c3ccco3)c2c1	67.6 nM
COC(=O)Nc1ccc2[nH]c(I)c(CCNC(C)=O)c2c1	0.302 nM
COC(=O)Nc1ccc2occ(CCNC(=O)C(C)C)c2c1	22.9 nM
COC(=O)Nc1ccc2occ(CCNC(=O)c3ccco3)c2c1	56.2 nM
COc1ccc2c(c(CCNC(C)=O)cn2C)c1[N+](=O)[O-]	0.309 nM

Other lines, results leading:

IC50	SMILES
70.8 nM	COc1ccc2c(CCNC(=O)C3CCC3)cccc2c1
64.6 nM	COc1ccc2occ(CCNC(C)=O)c2c1
28.8 nM	COc1ccc2cccc(CCNC(=O)c3ccccc3)c2c1
43.7 nM	COc1ccc2cccc(CCNC(=O)C(C)C)c2c1
28.2 nM	CS(=O)(=O)NCCc1cccc2ccccc12
12 nM	CNC(=O)c1ccc2cccc(CNC(C)=O)c2c1
37.2 nM	CC(=O)NCCc1cccc2ccc([S+](C)[O-])cc12 (centres undefined)
24 nM	COC(=O)Nc1ccc2cccc(CNC(=O)C3CC3)c2c1
18.2 nM	CSc1ccc2cccc(CCNC(C)=O)c2c1
61.7 nM	COc1ccc2cccc(CC3=NC(=O)NC3=O)c2c1
14.1 nM	COc1ccc2cccc(CCN3CCOC3=O)c2c1
53.7 nM	COc1ccc2cccc(CCNC(=O)c3ccco3)c2c1
11 nM	O=C(NCCc1cccc2ccc(O)cc12)c1ccco1
32.4 nM	CC(=O)NCCc1cccc2ccc(S(N)(=O)=O)cc12
51.3 nM	CC(C)(C)OC(=O)NCCc1cccc2ccc(O)cc12
9.12 nM	CNS(=O)(=O)c1ccc2cccc(CCNC(=O)c3ccco3)c2c1
20.9 nM	CC(=O)NCCc1cccc2ccc(S(C)(=O)=O)cc12
7.76 nM	C=CCC(=O)NCCc1cccc2ccc(O)cc12
52.5 nM	COC(=O)c1ccc2cccc(CNC(=O)c3ccco3)c2c1
61.7 nM	COc1ccc2cccc(CCNC(=O)CN3CCCC3=O)c2c1
